From patent US10888090B2, “Plant growth promoters and methods of using them” (KING ABDULLAH UNIVERSITY OF SCIENCE AND TECHNOLOGY, priority 2015, dated 2021)

How the values were obtained:
root hairs = conditions: at high concentration; cited from earlier work
[1] = test system: rice seedlings (cultivar 'Dongjin'); assay: Rice seedlings grown hydroponically with the compound: crown roots and biomass; type: in vivo; conditions: hydroponic
Experimental: FIG. 10: 3-OH-β-apo-13-Carotenone treatment increases the number of crown roots in rice. Seeds of cultivar ‘Dongjin’ were pre-germinated in water for 2 days followed by transfer to filter papers placed in petri dishes containing half-strength liquid Murashige and Skoog (MS) medium. The cultures were incubated at 24° C. for one week. Thereafter, the seedlings were grown hydroponically in half-strength modified Hoagland nutrient solution containing different concentrations of 3-OH-β-apo-13-carotenone for 2 weeks in the greenhouse. The medium was changed twice a week, data were recorded 2 weeks after treatment. (FIG. 10A) Number of crown roots of rice seedlings 2 weeks after treatment. Each value represents the mean of 10 seedlings. Error bar indicates standard error. Asterisks denote a significant difference from the mock treatment by student t-test (* P<0.05; ** P<0.01). FIG. 11: Root and shoot biomass of rice seedlings treated with 3-OH-β-apo-13-Carotenone. One week-old seedlings of cultivar ‘Dongjin’ were grown hydroponically in half-strength modified Hoagland nutrient solution containing different concentrations of 3-OH-β-apo-13-Carotenone for two weeks in the greenhouse. The medium was changed twice a week. After two weeks, roots and shoots were collected separately and dried in an incubator at 80° C. for 3 days. Dried samples were weighed using a Mettler Toledo balance. […]

[2] = test system: Arabidopsis (col-0) seedlings; assay: Hypocotyl-derived adventitious root formation in Arabidopsis seedlings; type: in vivo, Arabidopsis thaliana; conditions: 2.5 μM; arising after dark-light transition
From the text: FIG. 12A: 3-OH-β-apo-13-Carotenone treatment increases the number of hypocotyl-derived adventitious roots in a concentration-dependent manner (14 days old plants). For a better resolution, see FIG. 12B. FIG. 12B: 3-OH-β-apo-13-Carotenone treatment increases the number of hypocotyl-derived adventitious roots. (A) 4-day-old Arabidopsis (col-0) seedlings were transferred to 3-OH-β-apo-13-Carotenone containing plates at the indicated concentrations and grown for 10 days. Red arrows indicate adventitious roots on hypocotyl (B) Average number of adventitious roots. Seeds were germinated on 1 MS medium with 0.5% sucrose (pH 5.7) and grown for 4 days in the dark. Error bars represent means±S.E. Asterisks indicate significant differences as calculated using a standard Student's t-test (*P<0.005, ** <0.001). […] Therefore, we tested whether β-apo-13-carotenone can also induce adventitious root formation in the model plant Arabidopsis thaliana. As shown in FIGS. 12A and 12B, the compound exerted a clear induction on the number of hypocotyl-derived adventitious roots that usually arise spontaneously after dark-light transition. Highest activity—around 50% increase, was obtained with 2.5 μM concentrations (FIGS. 12A and 12B).

[3] = test system: Leaf explants of 12-day-old seedlings; assay: Leaf-derived adventitious roots (leaf explants of 12-day-old seedlings); type: in vivo, Arabidopsis thaliana
From the text: FIG. 13: 3-OH-β-apo-13-Carotenone treatment increases the number of leaf-derived adventitious roots (Leaf explants of 12-day-old seedlings). […] Therefore, we tested whether β-apo-13-carotenone can also induce adventitious root formation in the model plant Arabidopsis thaliana. As shown in FIGS. 12A and 12B, the compound exerted a clear induction on the number of hypocotyl-derived adventitious roots that usually arise spontaneously after dark-light transition. Highest activity—around 50% increase, was obtained with 2.5 μM concentrations (FIGS. 12A and 12B).

Arabidopsis = assay: Number of lateral roots in Arabidopsis (14 days old plants); type: in vivo
Experimental: FIG. 14: 3-OH-β-apo-13-Carotenone treatment of Arabidopsis increases the number of lateral roots in a concentration-dependent manner (14 days old plants). 0-5 μM corresponds to different concentrations of synthetic 3-OH-β-apo-13-Carotenone. Puri corresponds to synthetic 3-OH-β-apo-13-Carotenone after HPLC purification. […] Therefore, we tested whether β-apo-13-carotenone can also induce adventitious root formation in the model plant Arabidopsis thaliana. As shown in FIGS. 12A and 12B, the compound exerted a clear induction on the number of hypocotyl-derived adventitious roots that usually arise spontaneously after dark-light transition. Highest activity—around 50% increase, was obtained with 2.5 μM concentrations (FIGS. 12A and 12B). […] To ensure that the biological activity observed is caused by 3-OH-β-apo-13-carotenone and not by a possible contamination with a different compound that may be included during the organic synthesis, HPLC was used to isolate highly pure 3-OH-β-apo-13-carotenone, and the purified compound was applied.

Arabidopsis (Col-0) [4] = assay: Lateral root density in Arabidopsis, single and combined treatment with auxin; type: in vivo; conditions: 3-OH-β-apo-13-carotenone 2.5 μM, auxin 100 nM; 9 days
Experimental: FIG. 15: Combined 3-OH-β-apo-13-Carotenone and auxin treatment of Arabidopsis has a synergetic effect on lateral root density. 3-OH-β-apo-13-carotenone and auxin (indole-3-acetic acid) were applied at 2.5 μM and 100 nM, concentrations, respectively. Arabidopsis (Col-0) seeds were germinated in/MS-plates (with 0.5% sucrose) containing individual and both compounds together and grown in 16 light/8 dark period, 22° C. for 9 days. Graph represents both actual density and in percentage. *P<0.05; Student's t test; **P<0.05; Student's t test. Also investigated was possible effect of combining 3-OH-β-apo-13-carotenone with auxin.

Arabidopsis (Col-0) [5] = assay: Primary root length in Arabidopsis; type: in vivo; conditions: 2.5 μM, 9 days
Experimental: FIG. 16: 3-OH-β-apo-13-Carotenone treatment of Arabidopsis increases the length of primary root. Arabidopsis (Col-0) seeds were germinated on/MS-plates (with 0.5% sucrose) containing 3-OH-β-apo-13-carotenone and grown in 16 light/8 dark period, 22° C. for 9 days. *P<0.05; Student's t-test; **P<0.05; Student's t test. 3-OH-β-apo-13-carotenone was applied at 2.5 μM concentration. Also investigated was the effect of the compound on primary root length.

Greenhouse experiments = type: in vivo

CC(=O)/C=C/C=C(C)/C=C/C1=C(C)CCCC1(C)C [d'orenone, β-apo-13-carotenone]
tip growth of root hairs (root hairs): block tip growth of root hairs

CC(=O)/C=C/C=C(C)/C=C/C1=C(C)CC(O)CC1(C)C (stereo not drawn) [3-OH-β-apo-13-carotenone]
number of crown roots ([1]; micromolar concentrations, 2 weeks after treatment): obvious increase in the number of crown roots
increase in root and shoot biomass ([1]; two weeks, dried samples): around 30%
increase in number of hypocotyl-derived adventitious roots (highest activity) [2]: around 50%
number of leaf-derived adventitious roots [3]: noticeable increase (duplication)
number of lateral roots (Arabidopsis; 2.5 μM, synthetic compound): clearly increased the number of lateral roots
lateral root number (Arabidopsis; compound after HPLC purification): increase in lateral root number was detected similar to that observed before
increase in lateral root density, single treatment (Arabidopsis (Col-0) [4]): around 20%
primary root length (Arabidopsis (Col-0) [5]): small but significant increase
growth and flowering in greenhouse experiments (Greenhouse experiments): growth-promoting effects and early flowering

O=C(O)Cc1c[nH]c2ccccc12 [auxin, indole-3-acetic acid, reference compound]
increase in lateral root density, single treatment (Arabidopsis (Col-0) [4]): ~30%
